According to US20240174648A1, “Small Molecule Compound” (Technoderma Medicines Pte Ltd, priority 2019, published 2024):

Key:
Type in all cases: biochemical
JAK2 = JAK2 (Homo sapiens, UniProt O60674); test: JAK kinase inhibition assay (EZ Reader, peptide substrate phosphorylation) - JAK2; settings: JAK2 kinase 1 nM; 8 concentration points, max 10 μM
Source text: (§1) Assay for Identifying Inhibitory Effects of Compounds on JAK Kinases
(§2) Janus kinases (JAK), including JAK1, JAK2, JAK3 and Tyk2, transduce a cytokine-mediated signal through a JAK-STAT pathway. The kinases are 120-140 kDa in size and have 7 determined homology regions: JH1 to JH7. JH1 is an important region for enzymatic activity and has typical characteristics of tyrosine kinases. Phosphorylation of tyrosine leads to a change in the conformation of JAK protein, thereby promoting binding of substrate. The JAK-STAT system includes three main parts: receptors penetrating a cell membrane, Janus kinases binding to the receptors, and signal transducers and activators of transcription (STAT) for transmitting signals to a nucleus and DNA. When cytokines bind to receptors, JAK phosphorylates the receptors and attracts STAT proteins. The STAT proteins are also phosphorylated and combined with one another to form dimers. The dimers enter the nucleus and bind to DNA, thereby leading to gene transcription.
(§3) EZ Reader from PerkinElmer can be used to detect the phosphorylation of polypeptide substrates catalyzed by kinases. The device is based on microfluidic techniques, and can directly detect fluorescently labeled substrates and products. The separation step is achieved by controlling the pressure and electric field strength in the microfluidic chip. In kinase assays, a product conversion ratio is usually controlled to be 20-30%. A biological test is used to identify inhibitory effects of compounds on JAKs.
(§4) Compound powder was dissolved in DMSO, sealed and stored in a freezer under −20° C. The in-house compound Ref1 was used as a positive control for JAK1, JAK2 and Tyk2 tests, and Ref2 was used as a positive control for JAK3 tests.
(§5) S2.8. Assay buffer: 20 mM HEPES buffer, pH 7.4, 10 mM magnesium chloride, 0.01% bovine serum albumin BSA, 0.0005% Tween-20 and 1 mM dithiothreitol solution.
(§6) S2.9. Stop buffer: 180 mM HEPES buffer, 20 mM ethylenediaminetetraacetic acid and 0.2% coating reagent 3.
(§7) S2.10. Separation buffer: 100 mM HEPES buffer, 10 mM ethylenediaminetetraacetic acid, 0.0005% Tween 20, 0.1% coating reagent 3 and 1% dimethyl sulfoxide.
The compound was dissolved in dimethyl sulfoxide and diluted to 10 mM concentration, a certain volume of solution was taken and diluted to 0.6 mM concentration, 10 μL of the 0.6 mM dilution was added to a 384-well microplate, and then was diluted 3-fold with a total of 8 concentration points.
Positive control (HPE1): Ref1, final concentration: 10 μM […]
(§8) Negative control (ZPE): DMSO, final content: 1.6%
(§9) Compounds: maximum final concentration: 10 μM; 3-fold dilution, 8 concentration points and 2 duplicates.
(§10) S4.1. 250 nL of the compound was added to each well of the assay microplate by using ECHO, and centrifuged at 1000 rpm for 1 minute.
(§11) S4.2. 5 μL of the assay buffer was added and agitated for a few seconds to fully dissolve the compound.
(§12) S4.3. 5 μL of 3× substrate solution and 5 μL of 3× kinase solution were added and centrifuged at 800 rpm for 1 minute.
(§13) S4.4. Final concentrations of JAK1, JAK2, JAK3 and Tyk2 kinases in the reaction system were 20 nM, 1 nM, 1 nM and 1 nM respectively.
(§14) S4.5. Incubation at room temperature, where kinases had time differences, and different batches of kinases had time differences.
(§15) S4.6. When 20%-30% of the reaction completed, 15 μL of stop buffer was added to stop the reaction, and centrifuged at 1000 rpm for 2 minutes.
(§16) S4.7. The microplates were placed on EZ Reader for reading.
(§17) S4.8. Readings on EZ Reader were calculated by using a peak height, where product conversion ratio (%)=product/(product+substrate)*100.
(§18) 5. Data Processing: IC50 calculation
(§19) A graphing software Xlfit was used to form a concentration curve of the test compound, and an IC50 value was calculated.
(§20) “A” means “≥10 μM”; “B” means “≥1 μM and <10 μM”; “C” means “≥0.1 μM and <1 μM”; and “D” means “<0.1 μM”.

Tyk2 = Tyk2 (Homo sapiens, UniProt P29597); test: JAK kinase inhibition assay (EZ Reader, peptide substrate phosphorylation) - Tyk2; settings: Tyk2 kinase 1 nM; 8 concentration points, max 10 μM
Sequence of Tyk2 (P29597 whole entry): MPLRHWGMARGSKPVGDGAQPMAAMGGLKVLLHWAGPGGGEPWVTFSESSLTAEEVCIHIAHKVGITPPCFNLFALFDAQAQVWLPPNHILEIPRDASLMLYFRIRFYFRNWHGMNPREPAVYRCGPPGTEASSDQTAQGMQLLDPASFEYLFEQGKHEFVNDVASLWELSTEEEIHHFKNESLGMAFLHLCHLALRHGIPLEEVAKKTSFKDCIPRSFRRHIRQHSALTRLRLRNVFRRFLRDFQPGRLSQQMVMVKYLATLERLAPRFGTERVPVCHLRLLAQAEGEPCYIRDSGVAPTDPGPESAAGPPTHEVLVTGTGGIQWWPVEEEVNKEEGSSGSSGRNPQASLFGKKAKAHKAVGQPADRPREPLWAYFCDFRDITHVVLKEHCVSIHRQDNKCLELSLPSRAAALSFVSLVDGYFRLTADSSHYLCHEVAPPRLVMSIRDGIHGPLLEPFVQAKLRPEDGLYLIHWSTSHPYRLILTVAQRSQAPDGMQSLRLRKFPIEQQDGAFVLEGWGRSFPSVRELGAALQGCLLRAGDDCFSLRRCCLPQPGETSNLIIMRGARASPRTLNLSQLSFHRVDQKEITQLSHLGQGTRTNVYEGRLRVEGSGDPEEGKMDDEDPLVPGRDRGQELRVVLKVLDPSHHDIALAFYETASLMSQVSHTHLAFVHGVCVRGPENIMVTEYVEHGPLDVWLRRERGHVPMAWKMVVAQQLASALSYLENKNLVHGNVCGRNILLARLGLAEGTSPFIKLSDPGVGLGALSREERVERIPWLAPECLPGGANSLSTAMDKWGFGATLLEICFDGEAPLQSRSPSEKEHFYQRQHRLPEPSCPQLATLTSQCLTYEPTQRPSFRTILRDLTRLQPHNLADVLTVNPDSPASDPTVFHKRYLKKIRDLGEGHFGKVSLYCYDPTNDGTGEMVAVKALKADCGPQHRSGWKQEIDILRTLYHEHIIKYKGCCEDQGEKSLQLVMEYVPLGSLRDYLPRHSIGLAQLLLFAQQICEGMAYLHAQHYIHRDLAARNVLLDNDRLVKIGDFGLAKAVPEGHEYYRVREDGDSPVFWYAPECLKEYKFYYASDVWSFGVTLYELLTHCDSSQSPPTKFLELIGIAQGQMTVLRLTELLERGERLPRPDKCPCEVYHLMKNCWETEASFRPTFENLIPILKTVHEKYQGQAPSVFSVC
Procedure, shortened: (§21)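 Microfluidic mobility-shift detection of fluorescent peptide substrate phosphorylation, with JAK1 at 20 nM and JAK2, JAK3 and Tyk2 each at 1 nM final, in 20 mM HEPES pH 7.4, 10 mM MgCl2, 1 mM DTT. Reactions run at room temperature to 20–30% conversion, then EDTA-stopped. Compounds tested at 8 three-fold dilutions from 10 μM top final; IC50 from conversion curves.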

JAK1 = JAK1 (Homo sapiens, UniProt P23458); test: JAK kinase inhibition assay (EZ Reader, peptide substrate phosphorylation) - JAK1; settings: JAK1 kinase 20 nM; 8 concentration points, max 10 μM
Sequence of JAK1 (P23458 whole entry): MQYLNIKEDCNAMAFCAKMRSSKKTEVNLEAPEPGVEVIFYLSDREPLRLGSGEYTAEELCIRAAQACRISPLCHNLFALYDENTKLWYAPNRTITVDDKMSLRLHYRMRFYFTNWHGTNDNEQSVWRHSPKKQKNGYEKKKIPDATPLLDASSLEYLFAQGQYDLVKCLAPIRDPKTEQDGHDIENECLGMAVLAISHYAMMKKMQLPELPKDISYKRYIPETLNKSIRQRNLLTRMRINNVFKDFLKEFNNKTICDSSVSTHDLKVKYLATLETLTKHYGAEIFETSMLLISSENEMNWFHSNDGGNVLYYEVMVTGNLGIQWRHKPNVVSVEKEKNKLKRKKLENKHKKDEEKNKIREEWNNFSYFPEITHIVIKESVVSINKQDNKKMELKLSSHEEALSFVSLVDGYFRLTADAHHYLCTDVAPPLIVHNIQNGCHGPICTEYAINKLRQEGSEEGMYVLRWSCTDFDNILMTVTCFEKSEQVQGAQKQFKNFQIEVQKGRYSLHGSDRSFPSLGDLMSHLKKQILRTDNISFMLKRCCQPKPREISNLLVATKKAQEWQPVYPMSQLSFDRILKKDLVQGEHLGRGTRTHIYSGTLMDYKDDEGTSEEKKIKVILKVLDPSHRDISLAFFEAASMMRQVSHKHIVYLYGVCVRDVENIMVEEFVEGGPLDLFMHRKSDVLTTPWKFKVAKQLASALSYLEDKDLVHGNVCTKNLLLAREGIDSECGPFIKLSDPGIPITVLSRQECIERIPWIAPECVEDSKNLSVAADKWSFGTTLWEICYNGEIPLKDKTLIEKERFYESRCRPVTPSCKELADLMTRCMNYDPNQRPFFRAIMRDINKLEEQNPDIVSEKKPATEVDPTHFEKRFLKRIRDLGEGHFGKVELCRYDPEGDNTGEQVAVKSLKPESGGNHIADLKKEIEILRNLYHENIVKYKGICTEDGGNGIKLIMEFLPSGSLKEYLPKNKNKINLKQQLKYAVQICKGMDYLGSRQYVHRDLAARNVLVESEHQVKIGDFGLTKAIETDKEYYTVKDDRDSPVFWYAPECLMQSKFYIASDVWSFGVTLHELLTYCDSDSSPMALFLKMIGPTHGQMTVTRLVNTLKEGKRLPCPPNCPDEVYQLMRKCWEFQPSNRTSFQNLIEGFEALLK
Procedure, shortened: as §21

JAK3 = biological target: T1, JAK3 (Homo sapiens, UniProt P52333); test: JAK kinase inhibition assay (EZ Reader, peptide substrate phosphorylation) - JAK3; settings: JAK3 kinase 1 nM; 8 concentration points, max 10 μM
T1 sequence (P52333 1-1124): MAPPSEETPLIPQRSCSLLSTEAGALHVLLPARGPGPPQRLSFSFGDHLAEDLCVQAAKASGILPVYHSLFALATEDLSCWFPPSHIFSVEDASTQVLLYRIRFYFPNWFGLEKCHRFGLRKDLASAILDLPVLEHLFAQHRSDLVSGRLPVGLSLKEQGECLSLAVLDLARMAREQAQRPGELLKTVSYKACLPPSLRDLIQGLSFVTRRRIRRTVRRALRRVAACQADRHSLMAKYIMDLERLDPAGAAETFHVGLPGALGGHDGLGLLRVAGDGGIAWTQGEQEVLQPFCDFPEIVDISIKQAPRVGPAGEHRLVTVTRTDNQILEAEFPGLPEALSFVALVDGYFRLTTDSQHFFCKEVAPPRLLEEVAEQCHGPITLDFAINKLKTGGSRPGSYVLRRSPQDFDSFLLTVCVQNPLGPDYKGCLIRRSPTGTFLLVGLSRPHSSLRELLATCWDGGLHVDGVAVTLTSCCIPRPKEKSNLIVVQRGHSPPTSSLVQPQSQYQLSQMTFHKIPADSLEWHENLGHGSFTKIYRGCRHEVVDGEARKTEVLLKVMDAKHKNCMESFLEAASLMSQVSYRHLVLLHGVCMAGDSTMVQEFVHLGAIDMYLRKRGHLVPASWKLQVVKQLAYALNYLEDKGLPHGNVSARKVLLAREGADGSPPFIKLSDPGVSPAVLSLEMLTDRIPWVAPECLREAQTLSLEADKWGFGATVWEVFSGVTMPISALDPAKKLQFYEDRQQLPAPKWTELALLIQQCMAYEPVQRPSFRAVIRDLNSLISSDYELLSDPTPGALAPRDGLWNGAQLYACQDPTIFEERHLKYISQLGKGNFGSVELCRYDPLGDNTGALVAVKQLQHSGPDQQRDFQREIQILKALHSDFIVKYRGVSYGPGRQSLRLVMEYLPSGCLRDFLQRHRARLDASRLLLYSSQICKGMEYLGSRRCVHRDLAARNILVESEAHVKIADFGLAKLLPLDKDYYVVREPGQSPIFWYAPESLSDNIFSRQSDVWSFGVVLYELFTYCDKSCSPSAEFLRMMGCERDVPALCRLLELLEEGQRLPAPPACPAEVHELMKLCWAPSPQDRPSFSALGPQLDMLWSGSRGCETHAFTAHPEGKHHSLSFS
Source text: as §1, §2, §3, §4, §5, §6, §7
The compound was dissolved in dimethyl sulfoxide and diluted to 10 mM concentration, a certain volume of solution was taken and diluted to 0.6 mM concentration, 10 μL of the 0.6 mM dilution was added to a 384-well microplate, and then was diluted 3-fold with a total of 8 concentration points. […]
Positive control (HPE1): Ref2, final concentration: 10 μM
as §8, §9, §10, §11, §12, §13, §14, §15, §16, §17, §18, §19, §20

Sequence of JAK2 (O60674 whole entry): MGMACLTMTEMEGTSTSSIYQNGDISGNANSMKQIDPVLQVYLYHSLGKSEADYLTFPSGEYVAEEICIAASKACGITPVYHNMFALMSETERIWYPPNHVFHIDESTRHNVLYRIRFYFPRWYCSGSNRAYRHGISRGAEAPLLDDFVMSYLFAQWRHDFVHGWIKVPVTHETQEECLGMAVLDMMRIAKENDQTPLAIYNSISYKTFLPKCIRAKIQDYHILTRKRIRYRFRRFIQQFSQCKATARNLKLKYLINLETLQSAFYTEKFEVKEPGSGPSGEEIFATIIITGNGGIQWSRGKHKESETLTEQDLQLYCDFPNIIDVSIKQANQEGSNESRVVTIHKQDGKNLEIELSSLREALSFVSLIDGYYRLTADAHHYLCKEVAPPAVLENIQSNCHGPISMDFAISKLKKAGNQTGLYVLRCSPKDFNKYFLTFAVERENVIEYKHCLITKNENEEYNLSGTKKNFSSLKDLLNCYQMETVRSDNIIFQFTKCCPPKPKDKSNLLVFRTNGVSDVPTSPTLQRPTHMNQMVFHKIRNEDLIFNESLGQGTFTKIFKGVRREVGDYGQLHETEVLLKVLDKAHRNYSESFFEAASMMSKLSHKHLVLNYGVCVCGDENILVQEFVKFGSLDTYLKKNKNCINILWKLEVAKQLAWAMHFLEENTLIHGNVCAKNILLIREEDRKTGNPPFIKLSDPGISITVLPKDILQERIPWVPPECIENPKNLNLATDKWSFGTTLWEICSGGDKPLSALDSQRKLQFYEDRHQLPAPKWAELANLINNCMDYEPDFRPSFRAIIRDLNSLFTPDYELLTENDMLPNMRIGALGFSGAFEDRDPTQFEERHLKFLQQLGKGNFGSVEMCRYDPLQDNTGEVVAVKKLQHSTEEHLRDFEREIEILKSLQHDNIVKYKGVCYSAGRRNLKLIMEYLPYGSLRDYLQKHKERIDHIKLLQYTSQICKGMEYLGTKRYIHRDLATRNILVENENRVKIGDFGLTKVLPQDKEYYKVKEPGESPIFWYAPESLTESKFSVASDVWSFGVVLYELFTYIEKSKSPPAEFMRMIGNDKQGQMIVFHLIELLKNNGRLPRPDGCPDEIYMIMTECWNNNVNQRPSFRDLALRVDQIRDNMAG

| Structure (SMILES) | IC50 (JAK2) | IC50 (Tyk2) | IC50 (JAK1) | IC50 (JAK3) |
| --- | --- | --- | --- | --- |
| Cc1cc(-c2ccnc(Nc3cnn(C)c3)n2)ccc1C(=O)NCC(F)(F)F [TDM-180780, 2-methyl-4-(2-((1-methyl-1H-pyrazol-4-yl)amino)pyrimidin-4-yl)-N-(2,2,2-trifluoroethyl)benzamide] | 1 to 10 µM | 0.1 to 1 µM | 0.1 to 1 µM | > 10 µM |
| Cn1cc(Nc2nccc(-c3ccc(NC(=O)C4(C)CC4)cc3)n2)cn1 [TDM-180802, 1-methyl-N-(4-(2-((1-methyl-1H-pyrazol-4-yl)amino)pyrimidin-4-yl)phenyl)cyclopropane-1-carboxamide] | 0.1 to 1 µM | 0.1 to 1 µM | 0.1 to 1 µM | ≥ 10 µM |
| Cn1cc(Nc2nccc(-c3ccc(NC(=O)C4(F)CC4)cc3)n2)cn1 [TDM-180803, 1-fluoro-N-(4-(2-((1-methyl-1H-pyrazol-4-yl)amino)pyrimidin-4-yl)phenyl)cyclopropane-1-carboxamide] | 0.1 to 1 µM | 0.1 to 1 µM | 0.1 to 1 µM | ≥ 10 µM |
| Cn1cc(Nc2nccc(-c3ccc(NC(=O)CC4CC4)cc3)n2)cn1 [TDM-180804, 2-cyclopropyl-N-(4-(2-((1-methyl-1H-pyrazol-4-yl)amino)pyrimidin-4-yl)phenyl)acetamide] | 0.1 to 1 µM | 0.1 to 1 µM | 0.1 to 1 µM | 1 to 10 µM |
| Cn1cc(Nc2nccc(-c3ccc(NC(=O)C(F)F)cc3)n2)cn1 [TDM-180805, 2,2-difluoro-N-(4-(2-((1-methyl-1H-pyrazol-4-yl)amino)pyrimidin-4-yl)phenyl)acetamide] | 0.1 to 1 µM | 0.1 to 1 µM | 0.1 to 1 µM | 1 to 10 µM |
| Cn1cc(Nc2nccc(-c3ccc(NC(=O)C4CCC4)cc3)n2)cn1 [TDM-180813, N-(4-(2-((1-methyl-1H-pyrazol-4-yl)amino)pyrimidin-4-yl)phenyl)cyclobutanemethyl] | 0.1 to 1 µM | 1 to 10 µM | 0.1 to 1 µM | ≥ 10 µM |
| COCCC(=O)Nc1ccc(-c2ccnc(Nc3cnn(C)c3)n2)cn1 [TDM-180814, 3-methoxy-N-(5-(2-((1-methyl-1H-pyrazol-4-yl)amino)pyrimidin-4-yl)pyridin-2-yl)propanamide] | 0.1 to 1 µM | 1 to 10 µM | 0.1 to 1 µM | 1 to 10 µM |
| Cn1cc(Nc2nccc(-c3ccc(NC(=O)CC4CC4)nc3)n2)cn1 [TDM-180818, 2-cyclopropyl-N-(5-(2-((1-methyl-1H-pyrazol-4-yl)amino)pyrimidin-4-yl)pyridin-2-yl)acetamide] | 0.1 to 1 µM | 0.1 to 1 µM | 0.1 to 1 µM | 1 to 10 µM |
| Cn1cc(Nc2nccc(-c3ccc(NC(=O)C4CC4)nc3)n2)cn1 [TDM-180819, N-(5-(2-((1-methyl-1H-pyrazol-4-yl)amino)pyrimidin-4-yl)pyridin-2-yl)cyclopropylcarboxamide] | 0.1 to 1 µM | 0.1 to 1 µM | 0.1 to 1 µM | 1 to 10 µM |
| Cn1cc(Nc2nccc(-c3ccc(NS(=O)(=O)Cc4ccccc4)cc3)n2)cn1 [TDM-180820, N-(4-(2-((1-methyl-1H-pyrazol-4-yl)amino)pyrimidin-4-yl)phenyl)-1-phenylmethanesulfonamide] | < 0.1 µM | < 0.1 µM | < 0.1 µM | < 0.1 µM |
| Cn1cc(Nc2nccc(-c3ccc(NC(=O)C4(F)CC4)nc3)n2)cn1 [TDM-180821, 1-fluoro-N-(5-(2-((1-methyl-1H-pyrazol-4-yl)amino)pyrimidin-4-yl)pyridin-2-yl)cyclopropane-1-carboxamide] | 0.1 to 1 µM | 0.1 to 1 µM | 0.1 to 1 µM | ≥ 10 µM |
| Cn1cc(Nc2nccc(-c3ccc(NC(=O)C4CC4(F)F)nc3)n2)cn1 (stereo not drawn) [TDM-180822, 2,2-difluoro-N-(5-(2-((1-methyl-1H-pyrazol-4-yl)amino)pyrimidin-4-yl)pyridin-2-yl)cyclopropane-1-carboxamide] | < 0.1 µM | < 0.1 µM | < 0.1 µM | 0.1 to 1 µM |
| Cn1cc(Nc2nccc(-c3ccc(NC(=O)C4CCC4)nc3)n2)cn1 [TDM-180823, N-(5-(2-((1-methyl-1H-pyrazol-4-yl)amino)pyrimidin-4-yl)pyridin-2-yl)cyclobutanemethyl] | 1 to 10 µM | 1 to 10 µM | 0.1 to 1 µM | 1 to 10 µM |
| CN1CCN(c2ccc(-c3ccnc(Nc4cnn(C)c4)n3)cc2)CC1 [TDM-180828] | 1 to 10 µM | 1 to 10 µM | 1 to 10 µM | ≥ 10 µM |
| Cn1cc(Nc2nccc(-c3ccc(NC(=O)CC(F)(F)F)nc3)n2)cn1 [TDM-180830, 3,3,3-trifluoro-N-(5-(2-((1-methyl-1H-pyrazol-4-yl)amino)pyrimidin-4-yl)pyridin-2-yl)propanamide] | 0.1 to 1 µM | 0.1 to 1 µM | < 0.1 µM | 0.1 to 1 µM |
